Measured values taken from patent publication US20250228855A1, “PYRAZINAMIDE COMPOUNDS” (The General Hospital Corporation, priority 2022, published 2025).
Counter-ions that a name gives are not always drawn. Like-named read-outs stand apart in the source and are kept apart here.

How the values were obtained:
HsProRS = target: T1, HsProRS (Homo sapiens, UniProt P07814); assay: TR-FRET ligand displacement assay with tracer MAT379, HsProRS; assay type: binding
T1 sequence (P07814 1007-1512 limits assumed): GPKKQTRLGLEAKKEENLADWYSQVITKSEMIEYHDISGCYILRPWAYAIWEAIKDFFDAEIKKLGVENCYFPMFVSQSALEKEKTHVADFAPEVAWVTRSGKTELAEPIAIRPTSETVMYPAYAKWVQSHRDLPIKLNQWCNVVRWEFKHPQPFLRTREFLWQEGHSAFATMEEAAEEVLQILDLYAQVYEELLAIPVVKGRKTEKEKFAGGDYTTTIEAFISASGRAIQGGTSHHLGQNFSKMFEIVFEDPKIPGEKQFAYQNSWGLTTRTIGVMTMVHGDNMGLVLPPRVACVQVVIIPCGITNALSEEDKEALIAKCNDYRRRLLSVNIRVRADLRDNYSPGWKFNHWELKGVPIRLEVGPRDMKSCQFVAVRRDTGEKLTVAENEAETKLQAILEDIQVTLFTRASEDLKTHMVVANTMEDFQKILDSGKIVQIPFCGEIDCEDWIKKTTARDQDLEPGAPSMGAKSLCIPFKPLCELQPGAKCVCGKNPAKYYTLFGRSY

PfcProRS = PfcProRS (Plasmodium falciparum, UniProt Q8I5R7); assay: TR-FRET ligand displacement assay with tracer MAT379, PfcProRS; assay type: binding
Sequence of PfcProRS (Q8I5R7 whole entry): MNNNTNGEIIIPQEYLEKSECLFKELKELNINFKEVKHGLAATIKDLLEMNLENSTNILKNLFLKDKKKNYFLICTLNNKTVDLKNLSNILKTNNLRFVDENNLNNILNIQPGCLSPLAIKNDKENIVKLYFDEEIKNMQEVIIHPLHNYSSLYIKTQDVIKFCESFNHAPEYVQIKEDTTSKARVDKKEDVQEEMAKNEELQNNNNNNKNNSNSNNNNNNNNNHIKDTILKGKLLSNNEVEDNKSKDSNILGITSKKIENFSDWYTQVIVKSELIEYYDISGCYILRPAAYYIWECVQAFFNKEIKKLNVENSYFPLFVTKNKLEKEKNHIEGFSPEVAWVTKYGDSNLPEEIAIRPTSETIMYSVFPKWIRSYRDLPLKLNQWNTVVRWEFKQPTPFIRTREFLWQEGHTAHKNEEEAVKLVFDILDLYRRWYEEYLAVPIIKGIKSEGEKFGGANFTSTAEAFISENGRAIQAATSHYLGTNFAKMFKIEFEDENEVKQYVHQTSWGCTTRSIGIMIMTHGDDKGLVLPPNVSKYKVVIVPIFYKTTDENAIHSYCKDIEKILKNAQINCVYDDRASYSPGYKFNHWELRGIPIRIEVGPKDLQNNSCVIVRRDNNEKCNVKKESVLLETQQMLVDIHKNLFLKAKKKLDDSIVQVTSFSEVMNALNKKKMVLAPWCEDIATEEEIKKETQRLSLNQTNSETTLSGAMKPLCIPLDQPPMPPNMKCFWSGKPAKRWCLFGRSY

P. falciparum Dd2-2D4 = assay: P. falciparum asexual blood stage growth assay, wild-type Dd2-2D4; settings: for EC50: DD2, 72 h, read-out: Dd2 (EC50 [nM]) wt
Procedure: Asexual blood stage (ABS) P. falciparum parasites were treated with test compounds at varying concentrations for 72 h, followed by quantification of parasite growth by SYBR Green staining.
P. falciparum Asexual Blood Stage Growth Assay: This assay was performed as previously described.

[1] = read-out: HsProRS (KD [nM]) +proline, 100 μM Pro
[2] = no proline, no ATP, read-out: HsProRS (KD [nM]) −
[3] = no proline, no ATP, read-out: PfcProRS (KD [nM]) −
[4] = PfcProRS (KD [nM]) +proline, 100 μM Pro
[5] = read-out: PfcProRS (KD [nM]) +proline, 100 μM Pro

Row | SMILES | Kd (HsProRS; [1]) [nM] | Kd (HsProRS; [2]) [nM] | Kd (PfcProRS; [3]) [nM] | EC50 (P. falciparum Dd2-2D4; Plasmodium falciparum) [nM] | Kd (HsProRS) [nM] | Kd (PfcProRS; [4]) [nM] | further results
1 | O=C(C[C@@H]1NCCC[C@@H]1OC(=O)NS(=O)(=O)N1CCN(C(=O)Nc2nccnc2C(=O)NC2Cc3ccccc3C2)CC1)Cn1cnc2cc(Br)c(Cl)cc2c1=O (relative stereo) [iso-MAT436(40), cis-2-(3-(7-bromo-6-chloro-4-oxoquinazolin-3(4H)-yl)-2-oxopropyl)piperidin-3-yl ((4-((3-((2,3-dihydro-1H-inden-2-yl)carbamoyl)pyrazin-2-yl)carbamoyl)piperazin-1-yl)sulfonyl)carbamate] | 20.8 | – | – | – | – | – | fold lower affinity / reduced biochemical potency relative to MAT436 (PfcProRS): ~10 fold; fold lower affinity / reduced biochemical potency relative to MAT436 (PfcProRS; listed as 40): 5-10 fold; fold less active than MAT436 against ABS P. falciparum (P. falciparum Dd2-2D4): 3 fold
2 | CC(C)N(C(=O)Nc1nccnc1C(=O)NC1Cc2ccccc2C1)C(C)C [Compound 5, N-(2,3-dihydro-1H-inden-2-yl)-3-(3,3-diisopropylureido)pyrazine-2-carboxamide] | – | > 8720 | > 2860 | > 10000 | – | – | –
3 | CC(C)(C)OC(=O)NC1CCN(C(=O)Nc2nccnc2C(=O)NC2Cc3ccccc3C2)CC1 [Compound 7, tert-butyl (1-((3-((2,3-dihydro-1H-inden-2-yl)carbamoyl)pyrazin-2-yl)carbamoyl)piperidin-4-yl)carbamate] | 34.8 | 22.1 | – | – | – | – | –
4 | NC1CCN(C(=O)Nc2nccnc2C(=O)NC2Cc3ccccc3C2)CC1 [Compound 8, 3-(4-aminopiperidine-1-carboxamido)-N-(2,3-dihydro-1H-inden-2-yl)pyrazine-2-carboxamide dihydrochloride] | – | – | > 2860 | – | > 5090 | > 2180 | Kd (HsProRS; HsProRS (KD [nM]) −): > 8720 nM
5 | NCC1CCN(C(=O)Nc2nccnc2C(=O)NC2Cc3ccccc3C2)CC1 [Compound 10, 3-(4-(aminomethyl)piperidine-1-carboxamido)-N-(2,3-dihydro-1H-inden-2-yl)pyrazine-2-carboxamide dihydrochloride] | 1360 | – | > 2860 | – | – | > 2180 | Kd (HsProRS; HsProRS (KD [nM]) −): > 8720 nM
6 | O=C(NC1Cc2ccccc2C1)c1nccnc1NC(=O)N1CCC(CO)CC1 [Compound 11, N-(2,3-dihydro-1H-inden-2-yl)-3-(4-(hydroxymethyl)piperidine-1-carboxamido)pyrazine-2-carboxamide] | – | 265 | 299 | 712 | – | – | –
7 | CC(C)(C)OC(=O)N1CCN(C(=O)Nc2nccnc2C(=O)NC2Cc3ccccc3C2)CC1 [Compound 13, tert-butyl 4-((3-((2,3-dihydro-1H-inden-2-yl)carbamoyl)pyrazin-2-yl)carbamoyl)piperazine-1-carboxylate] | – | > 8720 | > 2860 | – | > 5090 | > 2180 | –
8 | O=C(NC1Cc2ccccc2C1)c1nccnc1NC(=O)N1CCNCC1 [Compound 14, N-(2,3-dihydro-1H-inden-2-yl)-3-(piperazine-1-carboxamido)pyrazine-2-carboxamide dihydrochloride] | 347 | – | > 2860 | – | – | 1630 | Kd (HsProRS; HsProRS (KD [nM]) −): > 8720 nM
9 | CC(C)(C)OC(=O)NC1(C(=O)Nc2nccnc2C(=O)NC2Cc3ccccc3C2)CCCCC1 [Compound 16, tert-butyl (1-((3-((2,3-dihydro-1H-inden-2-yl)carbamoyl)pyrazin-2-yl)carbamoyl)cyclohexyl)carbamate] | – | > 8720 | > 2860 | 6110 | > 5090 | > 2180 | –
10 | NC1(C(=O)Nc2nccnc2C(=O)NC2Cc3ccccc3C2)CCCCC1 [Compound 17, 3-(1-aminocyclohexane-1-carboxamido)-N-(2,3-dihydro-1H-inden-2-yl)pyrazine-2-carboxamide] | 25.5 | 4430 | 1390 | 5790 | – | 131 | –
11 | O=C(NC1Cc2ccccc2C1)c1nccnc1NC(=O)C1CCOCC1 [Compound 18, N-(2,3-dihydro-1H-inden-2-yl)-3-(tetrahydro-2H-pyran-4-carboxamido)pyrazine-2-carboxamide] | 225 | 7400 | > 2860 | > 20000 | – | 1590 | –
12 | O=C(Nc1nccnc1C(=O)NC1Cc2ccccc2C1)c1ccccc1 [Compound 21, 3-benzamido-N-(2,3-dihydro-1H-inden-2-yl)pyrazine-2-carboxamide] | 140 | 7830 | > 2860 | 9600 | – | 1430 | –
13 | O=C(O)CCCC(=O)Nc1nccnc1C(=O)NC1Cc2ccccc2C1 [Compound 22, 5-((3-((2,3-dihydro-1H-inden-2-yl)carbamoyl)pyrazin-2-yl)amino)-5-oxopentanoic acid] | – | > 8720 | > 2860 | 12300 | > 5090 | > 2180 | –
14 | NC(=O)Nc1nccnc1C(=O)NC1Cc2ccccc2C1 [Compound 23, N-(2,3-dihydro-1H-inden-2-yl)-3-ureidopyrazine-2-carboxamide] | – | > 8720 | > 2860 | 12100 | > 5090 | > 2180 | –
15 | Nc1nccnc1C(=O)NC1Cc2ccccc2C1 [Compound 45, 3-amino-N-(2,3-dihydro-1H-inden-2-yl)pyrazine-2-carboxamide] | – | > 8720 | > 2860 | 13600 | > 5090 | > 2180 | –
16 | CNc1nccnc1C(=O)NC1Cc2ccccc2C1 [Compound 46, N-(2,3-dihydro-1H-inden-2-yl)-3-(methylamino)pyrazine-2-carboxamide] | – | > 8720 | > 2860 | 8110 | > 5090 | > 2180 | –
17 | O=c1[nH]c2nccnc2c(=O)n1C1Cc2ccccc2C1 [Compound 47, 3-(2,3-dihydro-1H-inden-2-yl)pteridine-2,4(1H,3H)-dione] | – | > 8720 | > 2860 | 11100 | – | > 2180 | –
18 | Nc1nccnc1C(=O)NC1CCCCC1 [Compound 48, 3-amino-N-cyclohexylpyrazine-2-carboxamide] | – | > 8720 | > 2860 | 8740 | > 5090 | > 2180 | –
19 | O=C(NC1CCCCC1)c1nccnc1NC(=O)C1Cc2ccccc2C1 [Compound 49, N-cyclohexyl-3-(2,3-dihydro-1H-indene-2-carboxamido)pyrazine-2-carboxamide] | – | > 8720 | > 2860 | 6800 | > 5090 | > 2180 | –
20 | O=C(NC1Cc2ccccc2C1)c1nccnc1NS(=O)(=O)C1CCCCC1 [Compound 50, 3-(cyclohexanesulfonamido)-N-(2,3-dihydro-1H-inden-2-yl)pyrazine-2-carboxamide] | – | > 8720 | > 2860 | 13000 | > 5090 | > 2180 | –
21 | CC(C)(C)OC(=O)NCCCCCC(=O)NCCCCCC(=O)NC1CCN(C(=O)Nc2nccnc2C(=O)NC2Cc3ccccc3C2)CC1 [MAT420] | 781 | – | – | – | – | – | Kd (HsProRS; read-out: HsProRS (KD [nM]) −, no proline, no ATP): 415 nM; Kd (PfcProRS; [5]): 332 nM; Kd (PfcProRS; read-out: PfcProRS (KD [nM]) −, no proline, no ATP): 292 nM
22 | NCCCCCC(=O)NCCCCCC(=O)NC1CCN(C(=O)Nc2nccnc2C(=O)NC2Cc3ccccc3C2)CC1 [MAT421] | 2260 | 2340 | 2280 | – | – | – | Kd (PfcProRS; [5]): 1960 nM
23 | Nc1ncnc2c1ncn2[C@@H]1O[C@H](COS(=O)(=O)NC(=O)OC2CCCNC2CC(=O)Cn2cnc3cc(Br)c(Cl)cc3c2=O)[C@@H](O)[C@H]1O (stereo partly drawn) [MAT430, ((2R,3S,4R,5R)-5-(6-amino-9H-purin-9-yl)-3,4-dihydroxytetrahydrofuran-2-yl)methy ((((2S,3R)-2-(3-(7-bromo-6-chloro-4-oxoquinazolin-3(4H)-yl)-2-oxopropyl)piperidin-3-yl)oxy)carbonyl)sulfamate] | – | 18.4 | 5.01 | – | – | – | –
24 | O=C(CCCCCNC(=S)NC1CCCCC1)NC1CCN(C(=O)Nc2nccnc2C(=O)NC2Cc3ccccc3C2)CC1 [MAT483] | 3020 | 1000 | 198 | – | – | – | Kd (PfcProRS; [5]): 171 nM
25 | O=C(NS(=O)(=O)N1CCN(C(=O)Nc2nccnc2C(=O)NC2Cc3ccccc3C2)CC1)OCCn1cnc2ccccc2c1=O [MAT512, 2-(4-oxoquinazolin-3(4H)-yl)ethyl ((4-((3-((2,3-dihydro-1H-inden-2-yl)carbamoyl)pyrazin-2-yl)carbamoyl)piperazin-1-yl)sulfonyl)carbamate] | – | – | – | > 10000 | – | – | –
26 | O=C(NS(=O)(=O)NC1CCN(C(=O)Nc2nccnc2C(=O)NC2Cc3ccccc3C2)CC1)OCCn1cnc2ccccc2c1=O [MAT513, 2-(4-oxoquinazolin-3(4H)-yl)ethyl (N-(1-((3-((2,3-dihydro-1H-inden-2-yl)carbamoyl)pyrazin-2-yl)carbamoyl)piperidin-4-yl)sulfamoyl)carbamate] | – | – | – | 4830 | – | – | Kd (HsProRS; absence of proline, read-out: KD for HsProRS): 157 nM; Kd (PfcProRS; absence of proline, read-out: KD for PfcProRS): 20.3 nM; IC50 (P. falciparum Dd2-2D4; Plasmodium falciparum, DD2, read-out: IC50 for Dd2-2D4): 4830 nM
